Measurements: PubChem BioAssay AID464 (The Scripps Research Institute Molecular Screening Center, 2006)
Activity calls are given as the source filed them.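 The calls were made as follows: active = Compounds that kill half the cells at a concentration of 5 micromolar or below, from the fitted or estimated CC50; inactive = CC50 above 5 micromolar.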

Test system: Jurkat E6.1 viability, ATP luminescence, 48 h
Test: viability loss in Jurkat T cells – cell-based, ATP luminescence, 48 h, 60K MLSMR, cytotoxicity control, dose response (AID 464)

Structure (SMILES) | CC50
COc1ccc(C2=Nn3c(nnc3-c3ccc(OC)cc3)SC2)cc1 | 325 nM
CCCn1c(NC(=O)c2cccc(S(=O)(=O)N3CCCC3)c2)nc2ccccc21 | > 40000 nM (inactive)
Cc1ccc(C(=O)N2CCN(c3cccc(Cl)c3)CC2)cc1C | 19100 nM (inactive)
COc1cccc(C2=CC(c3cc(OC)ccc3OC)n3nnnc3N2)c1 (stereo not given) | 11700 nM (inactive)
Cc1ccccc1S(=O)(=O)Cc1ccc(C(=O)N2CCN(c3cccc(C)c3C)CC2)o1 | 2270 nM
O=C(Nc1nc(-c2ccccn2)cs1)c1ccc(Cl)s1 | 2120 nM
CCCn1c(NC(=O)C2CCN(S(=O)(=O)c3cccs3)CC2)nc2ccccc21 | > 40000 nM (inactive)
CCOC(=O)N1CCN(c2c(F)cc3[nH]c(=S)[nH]c3c2Br)CC1 | > 4400 nM (inactive)
CCOc1cc(C#N)c(NC(=O)c2cccnc2)cc1OCC | 1510 nM
O=S1(=O)Nc2c(ccc3cccnc23)-c2ccccc21 | 4740 nM
Oc1ccccc1-c1nnc(SCCN2CCOCC2)n1Cc1ccccc1 | 1700 nM
COc1ccc(NS(=O)(=O)c2ccc(NC(C)=O)cc2)cc1OC | 17700 nM (inactive)
O=C(Cc1n[nH]c(=O)c2ccccc12)OCC(=O)c1ccc2c(c1)OCCO2 | 3400 nM
CCC/C(O)=C1\C(=O)CC(C)(C)CC1=Nc1ccc(OC)cc1OC | 1780 nM
CCCCOC(=O)c1[nH]c2c(c1C)C(=O)CC(c1cc(OC)c(OC)c(OC)c1)C2 (stereo not given) | 18700 nM (inactive)
COc1ccccc1N=c1oc2cc(O)ccc2cc1C(N)=O | > 13000 nM (inactive)
COc1ccc(NS(=O)(=O)c2cc(C)ccc2C)cc1 | 5180 nM (inactive)
CN(C)c1ccccc1C(=O)c1ccccc1N(C)C | 743 nM
O=C(Nc1ccccc1)N1CCC(c2nc(-c3ccc(S(=O)(=O)N4CCOCC4)cc3)no2)CC1 | > 40000 nM (inactive)
CC(=O)c1sc(NC(=O)C2(F)C(F)(F)C(F)(F)C(F)(F)C(F)(F)C2(F)F)nc1C | > 13000 nM (inactive)
CC(=O)N1c2ccccc2N(Cc2ccc(C)cc2C)C(=O)C1(C)C | 2220 nM
Cc1ccnc(SCC(=O)Nc2sc3c(c2C#N)CCCC3)n1 | > 40000 nM (inactive)
COC(=O)/C=C/S(=O)(=O)c1ccc(NC(C)=O)cc1 | 2310 nM
CCOc1ccc(Nc2cc(C)nc(-n3nc(C)cc3C)n2)cc1 | 191 nM
COc1ccccc1-c1cc(C(=O)Nc2cccnc2)no1 | 146 nM
CCOc1ccc2nc(-c3ccccc3)[nH]c2c1 | 3010 nM
CCOC(=O)c1[nH]c2c(c1C)C(=O)CC(c1ccc(F)cc1)C2 (stereo not given) | 708 nM
COc1ccc(OC)c(C(C)NC(=O)c2ccco2)c1 (stereo not given) | 6240 nM (inactive)

Structure (SMILES) | CC50
COc1ccccc1S(=O)(=O)Cc1ccc(C(=O)N2CCN(c3cccc(Cl)c3)CC2)o1 | 3750 nM
CCOC(=O)c1c(-c2ccc(C)cc2C)csc1NC(=O)CSc1nnnn1C | 35000 nM (inactive)
c1ccc(CNc2ncnc3ccccc23)cc1 | 4680 nM
CCCCCCn1c2c(c(=N)c3c1CCC3)CCC2 | 482 nM
Cc1nc2ccc(S(=O)(=O)Nc3ccccc3C)cc2s1 | 8950 nM (inactive)
Cn1c(CN2CCOCC2)nc2cc(NC(=O)c3ccc(Cl)cc3)ccc21 | 1260 nM
COC(=O)c1[nH]c2c(c1C)C(=O)CC(c1cccs1)C2 (stereo not given) | 677 nM
Cc1noc(C)c1COc1cccc(C(=O)OCC(=O)N2CC(=O)Nc3ccccc32)c1 | 6330 nM (inactive)
CCCCOc1ccccc1NC(=O)Cn1c(-c2nonc2N)nc2ccccc21 | 733 nM
Cc1nc2ccccn2c1-c1csc(NCc2ccco2)n1 | > 40000 nM (inactive)
CCCCn1c(CN(C)Cc2ccccc2)nc2c1c(=O)n(C)c(=O)n2C | 14800 nM (inactive)
CC(=O)NC(c1ccco1)c1ccc2cccnc2c1O (stereo not given) | 3650 nM
O=c1cc(-c2ccccc2)[nH]c2ccccc12 | 373 nM
COc1ccc(CCNc2c(C)c(C)nc3ncnn23)cc1 | > 13000 nM (inactive)
Cc1oc(-c2ccc(Cl)cc2)nc1CN1CCCC(C(=O)N2CCN(C(=O)c3ccco3)CC2)C1 (stereo not given) | 2070 nM
Cc1cc(C)n(-c2ccc(C(=O)Nc3ccc(S(=O)(=O)NCc4ccco4)cc3)cc2)n1 | 5240 nM (inactive)
CC(O)CNc1nc2c(c(=O)n(C)c(=O)n2C)n1Cc1cccc(Br)c1 (stereo not given) | 22500 nM (inactive)
COc1ccc(CCNc2ncnc3c2oc2ccccc23)cc1OC | 2720 nM
Cc1ccc(Nc2cc(C)nn2-c2nc(C)cc(=O)[nH]2)cc1 | 1320 nM
CCOC(=O)C(C(C)=O)c1c(Br)c(O)c(O)c2c(C(=O)c3ccc(C)cc3)coc12 (stereo not given) | 6140 nM (inactive)
Cc1cc(NC(=O)CSc2nnc3c(C)cc4c(C)ccc(C)c4n23)no1 | 3830 nM
CCOc1ccccc1NC(=O)CN(c1ccc(OC)cc1)S(=O)(=O)c1c(C)noc1C | 1370 nM
COc1ccc(C2=Nn3c(nnc3-c3ccccc3OC)SC2)cc1OC | 116 nM
CCN(CC)c1ccc(-c2nn3c(-c4n[nH]c5c4CCC5)nnc3s2)cc1 | 895 nM
COc1ccc(-c2nnnn2-c2ccccc2OC)cc1 | 8670 nM (inactive)
CC1(C)CC(=O)C2=C(C1)OC1=C(C(=O)CC(C)(C)C1)C2c1ccc(O)cc1O | 2390 nM
CNc1nc2c(c(=O)n(C)c(=O)n2C)n1Cc1ccccc1 | 7540 nM (inactive)
